{
  "source": "paper PMC7031741",
  "about": "(Journal of Ginseng Research, 2018)",
  "target": "ABCB1 (P-glycoprotein, P-gp) (Homo sapiens, UniProt P08183)",
  "sequence (P08183 whole entry)": "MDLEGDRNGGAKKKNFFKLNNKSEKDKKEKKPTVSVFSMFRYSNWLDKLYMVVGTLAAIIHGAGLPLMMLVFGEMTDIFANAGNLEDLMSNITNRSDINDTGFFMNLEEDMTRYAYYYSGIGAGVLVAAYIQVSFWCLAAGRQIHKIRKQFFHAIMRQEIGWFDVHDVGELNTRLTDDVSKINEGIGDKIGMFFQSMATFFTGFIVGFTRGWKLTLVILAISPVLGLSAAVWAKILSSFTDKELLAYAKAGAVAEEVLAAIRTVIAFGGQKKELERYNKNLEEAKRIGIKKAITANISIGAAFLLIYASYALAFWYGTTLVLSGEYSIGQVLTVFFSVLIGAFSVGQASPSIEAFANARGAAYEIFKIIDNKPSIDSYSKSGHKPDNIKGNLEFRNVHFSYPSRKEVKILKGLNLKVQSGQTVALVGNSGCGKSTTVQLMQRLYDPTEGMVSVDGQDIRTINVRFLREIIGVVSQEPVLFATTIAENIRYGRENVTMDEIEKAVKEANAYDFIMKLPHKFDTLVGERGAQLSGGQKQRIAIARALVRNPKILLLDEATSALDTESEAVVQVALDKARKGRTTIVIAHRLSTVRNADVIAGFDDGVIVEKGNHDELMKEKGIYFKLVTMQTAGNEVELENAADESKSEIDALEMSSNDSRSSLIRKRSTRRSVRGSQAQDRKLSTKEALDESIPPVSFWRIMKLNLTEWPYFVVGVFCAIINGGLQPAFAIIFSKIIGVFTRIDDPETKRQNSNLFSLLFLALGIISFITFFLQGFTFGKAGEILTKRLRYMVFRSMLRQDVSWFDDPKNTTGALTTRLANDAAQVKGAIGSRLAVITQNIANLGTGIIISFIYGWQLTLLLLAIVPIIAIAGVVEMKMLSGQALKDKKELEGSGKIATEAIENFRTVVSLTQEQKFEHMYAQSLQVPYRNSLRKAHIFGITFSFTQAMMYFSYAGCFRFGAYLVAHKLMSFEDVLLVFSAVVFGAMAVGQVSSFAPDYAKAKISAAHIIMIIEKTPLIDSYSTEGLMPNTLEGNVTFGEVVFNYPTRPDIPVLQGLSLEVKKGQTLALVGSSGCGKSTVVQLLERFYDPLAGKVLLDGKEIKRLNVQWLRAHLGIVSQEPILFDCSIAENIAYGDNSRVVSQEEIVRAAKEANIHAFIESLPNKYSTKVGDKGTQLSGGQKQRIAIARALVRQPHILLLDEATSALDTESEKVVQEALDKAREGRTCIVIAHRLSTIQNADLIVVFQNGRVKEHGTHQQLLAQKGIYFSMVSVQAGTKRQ",
  "test": "Pgp-Glo ATPase assay: inhibition of verapamil-stimulated ABCB1 ATPase",
  "assay_type": "biochemical",
  "data": [
    {"compound": "CC(C)=CC/C=C(\\C)[C@H]1CC[C@]2(C)[C@@H]1[C@H](O)C[C@@H]1[C@@]3(C)CC[C@H](O[C@@H]4O[C@H](CO)[C@@H](O)[C@H](O)[C@H]4O[C@@H]4O[C@H](CO)[C@@H](O)[C@H](O)[C@H]4O)C(C)(C)[C@@H]3CC[C@]12C", "note": "[Rg5, Ginsenoside Rg5]", "values": [
      {"measurement": "IC50", "result": 9.16, "unit": "µM"}
    ]}
  ]
}
